46 molecules from PubChem BioAssay (NCI) can be followed below.

Values joined by “and” are separate entries in the source; they are usually repeats but may differ in a detail not shown here. Equal values may be shown once.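 Test compounds were applied to cells in 96-well plates for 48 hours at 5 doses. GI50 marks 50% less growth. TGI marks complete inhibition of growth.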

For the assay, the system named is MDA-MB-468 breast. Kind of assay: NCI-60 cell line screen, 48 h.

Regarding `Cc1cc(C(=O)N[C@@H](CCC(=O)O)C(=O)O)sc1CC[C@@H]1CNc2nc(N)[nH]c(=O)c2C1`, the GI50 is 0.0333 µM. Turning to `COc1ccc(-c2ccc3ncc4c(c3c2)n(-c2ccc(N3CCNCC3)c(C(F)(F)F)c2)c(=O)n4C)cn1`, the GI50 was < 0.01 µM and 0.00318 µM; the TGI was 0.0194 µM and 0.0199 µM. As to `COc1ccc2c(O)c(/C=C3\N=Nc4ncccc43)oc2c1C[C@H]1CCNC[C@H]1F`, the GI50 was 0.246 µM and the TGI amounted to 1.95 µM.

Consider `O=[N+]([O-])c1cccc(/C=C/c2ccccn2)c1`, for which the GI50 was 2.25 µM and the TGI was over 100 µM.

Turning to `Cc1cc(O)c(C2=NN(c3ccc(S(N)(=O)=O)cc3)C(c3ccccc3O)C2)cc1Cl` (stereo unspecified), the GI50 is 2.26 µM and the TGI was 5.7 µM. As to `COc1cc(-c2cc(-c3nc4cc(Cl)c(Cl)cc4[nH]3)[nH]n2)cc(OC)c1OC`, the GI50 is 3.49 µM and the TGI turned out to be 16.2 µM. With `OC(COc1cccc2ccccc12)CN1CCN(c2ccc(Cl)cc2)CC1` (stereo unspecified), the GI50 was 36.4 µM and the TGI was over 100 µM. As to `O=C(CCc1ccco1)NC1CCN(CC2(c3ccc(Cl)cc3)CCC2)CC1`, the GI50 is 5.28 µM and the TGI worked out at 18.9 µM.

Regarding `COc1ccc2[nH]c(-c3ccccc3)c(C=C(C#N)C#N)c2c1`, the GI50 is 2.13 µM and the TGI stood at 49.9 µM.

As to `CSC1=Nc2c(c(C)c(-c3ccccc3)n2CCCCl)C2=NC(=O)CN12`, the GI50 is 3.13 µM and the TGI came to 13.1 µM.

Turning to `O=C(C[C@@]1(O)C(=O)Nc2c(Cl)ccc(Cl)c21)c1ccc(C2CC2)cc1`, the GI50 was 0.221 µM and the TGI is 18.6 µM. Take `O=C1CCC(N2C(=O)c3ccc(NS(=O)(=O)c4ccccc4OC(F)(F)F)cc3C2=O)C(=O)N1` (stereo unspecified): the GI50 was 0.0536 µM and the TGI is 2.13 µM. For `N=C(N)c1ccc(-c2ccc(-c3cncc4ccccc34)s2)cc1F`, in that order: 1.28 µM and 2.95 µM. The corresponding values for `CCN(CC)S(=O)(=O)c1ccc(-c2nc(C(Cl)Cl)nc3cc(C)nn23)cc1` are 1.72 µM and 4.44 µM. For `CC(C)(C)CC(C)(C)N(CSc1ccc(Cl)cc1)CSc1ccc(Cl)cc1`, in that order: 2.61 µM and 12.4 µM.

Consider `COc1cccc2c1C(=O)c1c(O)c3c(c(O)c1C2=O)C[C@@](O)(C(=O)CO)C[C@@H]3OC1CC(OC(C)=O)C(OC(C)=O)C(C)O1` (stereo partly specified), for which the GI50 is 0.53 µM and the TGI is 5.06 µM. The corresponding values for `C=CC(=O)NCCOc1cccc(Nc2cc(NCCCNC(=O)C3CCC3)c(Br)cn2)c1` are 1.42 µM and 5.08 µM. For `COc1cc2cn3c4ccc(O)cc4nc(N)c3c2cc1OC`, in that order: 0.313 µM and 2.21 µM. `O=C(Nc1ccc(Cl)cc1F)c1cc(F)ccc1O`: the GI50 was 1.27 µM and the TGI worked out at 5.18 µM. The corresponding values for `COc1cc(-c2nc(-c3nnc(-c4ccc(F)c(Cl)c4)o3)c3ccccn23)cc(OC)c1OC` are 3.39 µM and over 100 µM. On to `COc1nc2c(cc1S(=O)(=O)c1ccccc1)CCc1c-2cnn1Cc1ccccc1`, for which the GI50 is 6.45 µM and the TGI was over 100 µM. The corresponding values for `Cc1cc(Nc2cc(CN3CCOCC3)c3nc(C)c(Cc4ccc(Cl)cc4F)n3n2)n[nH]1` are 0.441 µM and 2.95 µM. On to `COc1ccc(Cn2cc3c(c2-c2cc(OC)c(OC)c(OC)c2)CCCc2cnoc2-3)cc1N`, for which the GI50 was 0.54 µM and the TGI is over 100 µM. For `CC(C)(C)OC(=O)N1CC(Cn2cc(C(F)(F)F)c3c(Cl)ncnc32)C1`, the GI50 is 1.84 µM and the TGI came out at 3.87 µM. In the case of `Cc1c2cnccc2c(C)c2c1c1cc(C(=O)O)ccc1n2C`, the GI50 was 0.837 µM and the TGI worked out at 3.07 µM. For `COc1ccc(C2=CC(c3ccc(Oc4ccnc5cc(Cl)ccc45)c(OC)c3)c3c(nc(OC)[nH]c3=O)N2)cc1` (stereo unspecified), in that order: 5.22 µM and over 100 µM. For `COc1cc(OC)cc(-c2ccc(-c3ccc(C(=N)N)s3)s2)c1`, the GI50 is 0.304 µM and the TGI was determined as 1.16 µM. For `CN1C(=O)N(C)C2C1NN=c1s/c(=C\c3c[nH]c4ccccc34)c(=O)n12` (stereo unspecified), in that order: 0.0359 µM and over 86.8 µM. As for `C=CC[N+]1(CCO)CCN=C1CCCCCCCCCCCCC` (stereo unspecified), the GI50 was 1.18 µM and the TGI came to 2.55 µM. With `O=C1c2ccc3c4c(ccc(c24)C(=O)N1CCCNCc1ccccc1)C(=O)N(CCCNCc1ccccc1)C3=O`, the GI50 was 0.143 µM and the TGI was 0.285 µM. For `COc1ccc2c(c1)C(=O)c1c-2c(OCCN(C)C)nc2cc(OC)ccc12`, in that order: 1.87 µM and 8.57 µM.

With `C[C@@H]1[C@H]2[C@H](C=C3[C@@H]4CC[C@H]5Cc6nc7c(nc6C[C@]5(C)[C@H]4C[C@@H](O)[C@@]32C)C[C@@H]2CC[C@H]3C4=C[C@@H]5O[C@@]6(CC[C@](C)(CO)O6)[C@@H](C)[C@@]5(O)[C@@]4(C)[C@H](O)C[C@@H]3[C@@]2(C)C7)O[C@]12CCC(C)(C)O2`, the GI50 was 0.961 µM and the TGI came to 20.7 µM.

As to `O=C1OCC2=C1C(c1cccc(C(F)(F)F)c1)c1cc3c(cc1N2CCO)OCO3` (stereo unspecified), the GI50 was 0.244 µM and the TGI came to 2.16 µM. `NC(=O)c1ccc2nc(-c3ccc(C4(N)CCC4)cc3)c(-c3ccccc3)n2n1`: the GI50 is 0.169 µM and the TGI was 10.3 µM. For `CN(C)CCN1C(=O)c2cccc3c(N)ccc(c23)C1=O`, in that order: 8.4 µM and over 25 µM. The corresponding values for `FC(F)(F)c1[nH]ncc1-c1nc2c(N3CCCCC3)cc3[nH]ncc3c2c2c1CCCC2` are 0.691 µM and 2.45 µM. `COc1ccccc1-c1ccc2nc(NC(=O)Nc3cc(C(F)(F)F)cc(C(F)(F)F)c3)sc2c1`: the GI50 is 1.52 µM and the TGI was 5.43 µM. For `NC(N)=Nc1ccc(Oc2cccc(Nc3ccc(Cl)c(C(F)(F)F)c3)c2)cc1`, in that order: 1.48 µM and 3.48 µM.

As to `COc1cc(-c2nc3ccccc3[nH]2)ccc1OCC(=O)N=Nc1c(O)[nH]c2ccc(Cl)cc12`, the GI50 was 1.74 µM and the TGI came out at 3.45 µM. The corresponding values for `COc1cc(/C=C2\CCCC3C2=Nc2ccccc2NC3c2cc(OC)c(OC)c(OC)c2)cc(OC)c1OC` (stereo unspecified) are 1.71 µM and 6.1 µM. As for `CCN1/C(=C/C=C/C=C/c2sc3ccccc3[n+]2CC)Sc2ccccc21`, the GI50 was 0.117 µM and the TGI amounted to 0.989 µM. With `COc1ccc(-c2nn(-c3ccc(NC(=O)Nc4ccc(Cl)c(Cl)c4)cc3)cc2-c2ccncc2)cc1Cl`, the GI50 was 1.61 µM and the TGI was 4.48 µM. In the case of `CCN1CCC2(CC1)NC(=O)c1c(c3ccc(Cl)c(Cl)c3n1C)C2C#N` (stereo unspecified), the GI50 is 1.35 µM and the TGI was 2.91 µM.

With `Fc1c[c-]c(-c2ccccn2)c(F)c1.[CH3-].[Pt+2].c1ccc([PH+](c2ccccc2)c2ccccn2)cc1`, the GI50 was 1.4 µM and the TGI worked out at 4.27 µM. As for `C[C@H](C(=O)N[C@@H](Cc1ccc(-c2ccccc2)cc1)C(=O)NC1CC(C)(C)N(C)C(C)(C)C1)c1ccc(-c2ccccc2)c(F)c1`, the GI50 was 1.24 µM and the TGI was 2.66 µM. As to `CCOC(=O)/C(=C/c1ccccc1)C(=O)c1ccccc1`, the GI50 is 3.77 µM and the TGI stood at 13.8 µM.
